Laboratory results taken from patent US8389523B2, “Substituted quinoxaline and an agrochemical composition thereof” (Kumiai Chemical Industry Co., Ltd., priority 2007, dated 2013).

Legend:
Assay type in all cases: in vivo
Parameters in all cases: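 grade 0 to 5 of growth suppression where 5 is 90% or more and 0 below 10%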
[1] = test system: Echinochloa oryzicola Vasing; assay: Herbicidal effects in paddy field soil treatment (Test Example 1); conditions: paddy field soil treatment; 1000 g of the active ingredient per hectare; wettable powder added dropwise on water surface; 21st day after treatment
Method in brief: (§1)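 Application rate 1000 g a.i./ha, delivered as water-diluted wettable powder onto flooded (3 cm) paddy soil one day after sowing. Plants kept in a greenhouse and evaluated for herbicidal effect on day 21 post-treatment.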

[2] = test system: Monochoria vaginalis (Burm. f.) Presl var. plantaginea (Roxb.) Solms-Laub.; assay: as above; conditions: paddy field soil treatment; 1000 g of the active ingredient per hectare; wettable powder added dropwise on water surface; 21st day after treatment
Method in brief: as §1

[3] = test system: Scirpus juncoides Roxb. var. ohwianus. T. Koyama; assay: as above; conditions: paddy field soil treatment; 1000 g of the active ingredient per hectare; wettable powder added dropwise on water surface; 21st day after treatment
Method in brief: as §1

[4] = test system: Abutilon theophrasti medicus; assay: Herbicidal effects in upland field soil treatment (Test Example 2); conditions: 1000 g active ingredient per hectare, 21st day after treatment, criteria of Table 138
Method in brief: (§2)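 Herbicidal effect graded 21 days after treatment, plants kept in greenhouse. Treatment was a soil-surface spray of wettable powder in water, 1000 g a.i./ha in 1000 L/ha, applied after sowing and covering seeds.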

Amaranthus viridis L. [5] = assay: as above; conditions: 1000 g active ingredient per hectare, 21st day after treatment, criteria of Table 138
Method in brief: as §2

[6] = test system: Abutilon theophrasti medicus; assay: Herbicidal effects in upland field foliar treatment (Test Example 3); conditions: criteria of Table 138; for herbicidal effect (index) on Abutilon theophrasti medicus: 1000 g active ingredient per hectare, 14th day after treatment; for herbicidal effects on Abutilon theophrasti medicus: 1000 g of the active ingredient per hectare, 14th day after the treatment, wettable powder
Method in brief: (§3)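 Foliar spray of diluted wettable powder, 1000 g a.i./ha in 1000 L/ha, onto two-week-old greenhouse-grown seedlings in upland field soil. Plants kept in the greenhouse, with effect rated on a criteria scale at day 14.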

Amaranthus viridis L. [7] = assay: as above; conditions: criteria of Table 138; for herbicidal effect (index) on Amaranthus viridis L.: 1000 g active ingredient per hectare, 14th day after treatment; for herbicidal effects on Amaranthus viridis L.: 1000 g of the active ingredient per hectare, 14th day after the treatment, wettable powder
Method in brief: as §3

[8] = test system: Echinochloa crus-galli (L.) P. Beauv. var. crus-galli; assay: as above; conditions: criteria of Table 138; for herbicidal effect (index) on Echinochloa crus-galli (L.) P. Beauv. var. crus-galli: 1000 g active ingredient per hectare, 14th day after treatment; for herbicidal effects on Echinochloa crus-galli (L.) P. Beauv. var. crus-galli: 1000 g of the active ingredient per hectare, 14th day after the treatment, wettable powder
Method in brief: as §3

| Compound | Herbicidal effects index, Echinochloa oryzicola Vasing [1] | Herbicidal effects index, Monochoria vaginalis (Burm. f.) Presl var. plantaginea (Roxb.) Solms-Laub. [2] | Herbicidal effects index, Scirpus juncoides Roxb. var. ohwianus. T. Koyama [3] | herbicidal effect (index) on Abutilon theophrasti medicus [4] | herbicidal effect (index) on Amaranthus viridis L. (Amaranthus viridis L. [5]) | herbicidal effect (index) on Abutilon theophrasti medicus [6] | herbicidal effect (index) on Amaranthus viridis L. (Amaranthus viridis L. [7]) | herbicidal effect (index) on Echinochloa crus-galli (L.) P. Beauv. var. crus-galli [8] | herbicidal effects on Abutilon theophrasti medicus [6] | herbicidal effects on Amaranthus viridis L. (Amaranthus viridis L. [7]) | herbicidal effects on Echinochloa crus-galli (L.) P. Beauv. var. crus-galli [8] |
| --- | --- | --- | --- | --- | --- | --- | --- | --- | --- | --- | --- |
| O=C1CCCC(O)=C1C(=O)c1nc2ccccc2n(-c2ccc(F)cc2)c1=O [II-8] | 5 | 5 | 5 | 5 | 5 | 5 | 5 | 5 |  |  |  |
| O=C1CCCC(O)=C1C(=O)c1nc2ccccc2n(-c2ccccc2Cl)c1=O [II-9] | 5 | 5 | 5 | 5 | 4 | 5 | 5 | 5 |  |  |  |
| O=C1CCCC(O)=C1C(=O)c1nc2ccccc2n(-c2cccc(Cl)c2)c1=O [II-11] | 5 | 5 | 5 | 5 | 5 | 5 | 5 | 5 |  |  |  |
| O=C1CCCC(O)=C1C(=O)c1nc2ccccc2n(-c2ccc(Cl)cc2)c1=O [II-13] | 5 | 5 | 5 | 5 | 5 | 5 | 5 | 5 |  |  |  |
| O=C(C1=C(O)C2CCC(C2)C1=O)c1nc2ccccc2n(-c2ccc(Cl)cc2)c1=O (stereo not shown) [II-14] | 5 | 5 | 5 | 5 | 5 |  |  |  | 4 | 5 | 5 |
| CC1(C)C(=O)C(C(=O)c2nc3ccccc3n(-c3ccc(Cl)cc3)c2=O)=C(O)C(C)(C)C1=O [II-15] | 5 | 5 | 5 | 5 | 5 |  |  |  | 5 | 5 | 5 |
| Cc1cccc(-n2c(=O)c(C(=O)C3=C(O)CCCC3=O)nc3ccccc32)c1 [II-20] | 5 | 5 | 5 | 5 | 5 |  |  |  | 5 | 5 | 5 |
| Cc1ccc(-n2c(=O)c(C(=O)C3=C(O)CCCC3=O)nc3ccccc32)cc1 [II-21] | 5 | 5 | 5 | 5 | 5 |  |  |  | 5 | 5 | 5 |
